Reference: patent US10912741B2, “Prevention of liver cancer with safranal-based formulations” (United Arab Emirates University, priority 2019, dated 2021)
Marks after values point to notes of the source that are not given here.

Key:
[1] = tested on: IL-8 secretion by HepG2 cells; assay: IL-8 ELISA of supernatant of safranal-treated cells; type: cell-based, human; settings: as early as 6 hrs
Description: (§1) HepG2, were cultured in RPMI 1640 medium (HyClone, USA) and 1% of 100 U/ml penicillin and 100 ug/ml streptomycin (Sigma, USA) supplemented with 10% fetal bovine serum (Sigma, USA) at 37° C. in a humidified 5% CO2 atmosphere. Cells were sub-cultured each 4-6 days using trypsin 0.25% (Hyclone, USA).
(§2) In 100 mm plates, HepG2 cells were seeded at a density of 2×10^4 in complete growth medium. Cells were allowed to attach for 24 hours, after which complete growth medium was replaced by serum-free medium. Cells were treated with safranal at a concentration of 1 mM (20 mM stock). Plates were incubated for 6, 12, 24, and 48 hours in a humidified 5% CO2 atmosphere at 37° C. At indicated times, 1 mL of cell supernatant was obtained from each plate and was stored at −80° C. for further analysis by ELISA. After which whole cell lysates were prepared. Bicinchoninic acid (BCA) assay (Sigma-Aldrich, USA) was used to determine concentration of protein. Thirty μg of protein were loaded onto 10% SDS polyacrylamide electrophoresis gels. […]
Supernatant of safranal-treated cells were used to investigate the effect of safranal on IL-8 secretion level. […] Absorbance was recorded at 450 nm with background subtraction at 570 nm using a microplate reader (Biotek, Winooski, Vt., USA).

[2] = tested on: p-IkB in HepG2 cells; assay: Western blotting, p-IkB; type: cell-based, human; settings: starting at 24 hours of safranal treatment (1 mM)
Description: as §1
as §2, with “gels. The gels were transferred onto nitrocellulose membranes prior to immunodetection processing with anti-p-IkB-alpha, anti-H2AX (Cell Signaling Technology, USA), and with anti-rabbit IgG peroxidase conjugated secondary antibodies.” for “gels.”

[3] = tested on: p-TNF-R1; assay: Immunohistochemical staining of liver sections, p-TNF-R1 positive cells; type: in vivo, albino Wistar rats
Description: (§3) The experimental hepatocarcinogenesis model was developed according to a protocol by Espandiaria et al. that was adapted for our purposes. To initiate and promote hepatocarcinogenesis, diethylnitrosamine (DEN) and 2-acetylaminofluorene (2-AAF) were used, respectively. For hepatocarcinogenesis initiation in this model, a single DEN dose (200 mg/kg b.wt.) dissolved in saline was injected intraperitoneally. After initiation, all rats underwent one period of 5-days fasting, as mitotic proliferative stimuli. To promote hepatocarcinogenesis, 2-acetylaminofluorene (2-AAF) was introduced in the form of six daily intragastric doses (30 mg/kg in 1% Tween 80); two weeks after DEN treatment.
Safranal at doses of 25 mg/kg by weight (b.wt.) and 50 mg/kg b.wt, was administrated orally to rats. These doses have been reported to suppress chemically-induced oxidative damage in rats. A total of 40 adult male albino Wistar rats were randomly divided into […] (n=8) and were subjected to different treatments. […]
(§4) For immunohistochemical staining, mounted sections were immersed in sodium citrate buffer (0.1 M, pH 6) and placed in a water bath for 15 minutes to unmask antigen epitopes. […] Ten fields were randomly selected to quantify positive cells, in individual samples (400×). […]

[4] = tested on: COX-2; assay: Immunohistochemical staining of liver sections, COX-2 positive cells; type: in vivo, albino Wistar rats; settings: mean±SEM, 8 rats
Description: as §3
Safranal at doses of 25 mg/kg by weight (b.wt.) and 50 mg/kg b.wt, was administrated orally to rats. These doses have been reported to suppress chemically-induced oxidative damage in rats. A total of 40 adult male albino Wistar rats were randomly divided into […] (n=8) and were subjected to different treatments. Group 1 (control) was orally administered distilled water (5 ml/kg b.wt.) throughout the experimental duration and were injected with a single dose of saline. Group 2 (Safranal only) was subjected to a safranal dose (50 mg/kg b.wt.) through oral administration for the duration of the experimental period. Hepatocarcinogenesis was induced by DEN and promoted by 2-AAF, as reported previously, in group 3 (HCC). Rats in protective groups (groups 4-5) were treated with low/high doses of saffron-based safranal suspensions, at the beginning of promotion periods and continued for 12 weeks. The low dosage treatment with safranal consisted of 25 mg/kg b.wt., and the high dosage treatment consisted of 50 mg/kg b.wt. The experimental design is illustrated in FIG. 1.
as §4

[5] = tested on: human prostate cancer PC-3 cell lines; settings: PC-3 cell line, reported in the background; cited from earlier work

Question: For `CC1=C(C=O)C(C)(C)CC=C1` [Safranal, 2,6,6-trimethylcyclohexa-1,3-diene-1-carbaldehyde], which IL-8 secretion [1] is on record?
Answer: dramatic decrease in IL-8 secretion

Question: What about the “level of p-IkB protein” value [2] of the same compound?
Answer: transiently decreased

Question: What about the “number of p-TNF-R1 positive cells” value ([3]; low/high doses of safranal, DEN-2-AAF-treated animals (groups 4-5), vs HCC group) of the same compound?
Answer: highly significant decrease

Question: What about the “number of p-TNF-R1 positive cells” value ([3]; safranal alone, compared to control group) of the same compound?
Answer: change of no significance

Question: And the COX-2 positive cells ([4]; HCC (DEN/2-AAF) rats + safranal high dose 50 mg/kg b.wt. oral, 12 weeks)?
Answer: 6.91 ± 1.09^a&b positive cells/field

Question: What about the COX-2 positive cells ([4]; HCC (DEN/2-AAF) rats + safranal low dose 25 mg/kg b.wt. oral, 12 weeks) of the same compound?
Answer: 2.15 ± 0.38^b positive cells/field

Question: And the COX-2 positive cells ([4]; safranal alone 50 mg/kg b.wt. oral, no DEN (group 2))?
Answer: 0.58 ± 0.04 positive cells/field

Question: What about the apoptosis [5] of the same compound?
Answer: induce apoptosis
